# Active and inactive are the calls of the source. The rule behind the calls is not given here.
# What was measured:
# PC-12 [1] = experiment: Neurotrophic activity in rat PC-12 cells assessed as neurite outgrowth promoting activity in NGF-induced cells by measuring differentiation rate at 10 […] (reference value: 4.24 +/- 0.03 %); assay type: functional; set-up: concentration or dose not given beside the values
# PC-12 [2] = experiment: Induction of neurite outgrowth in NGF-induced rat PC-12 cells assessed as increase in average neurite length at 10 uM in presence of by methylene blue staining based light microscopy; assay type: functional, cell-based
# PC-12 [3] = experiment: Neurotrophic activity in rat PC-12 cells assessed as neurite outgrowth promoting activity in NGF-induced cells by measuring differentiation rate at 10 […] relative to merrillianone; assay type: functional
# PC-12 [4] = experiment: Neurotrophic activity in rat PC-12 cells assessed as neurite outgrowth promoting activity in NGF-induced cells by measuring differentiation rate at 10 […] relative to cycloparviforalone; assay type: functional
# [5] = Hydrolytic stability in phosphate buffer with pH 3.5 assessed as retention time measured after 2 hrs by HPLC analysis; assay type: physicochemical; details: pH 3.5, 2 h
# [6] = Hydrolytic stability in phosphate buffer with pH 3.5 assessed as retention time measured after 4 hrs by HPLC analysis; assay type: physicochemical; details: pH 3.5, 4 h
# [7] = Hydrolytic stability in phosphate buffer with pH 3.5 assessed as retention time measured after 6 hrs by HPLC analysis; assay type: physicochemical; details: pH 3.5, 6 h
smiles,measurement,setting,value
C[C@@H]1CC=C2[C@]13C[C@@]1(O)OC(OC[C@@]2(C)[C@@]1(C)O)[C@@H]3OC(=O)CCc1cccc(F)c1,Activity,PC-12 [1],4.97%
C[C@@H]1CC[C@@]2(O)[C@]13C[C@@]1(OC(=O)CCc4cccc(Cl)c4)OC(OC[C@@]2(C)[C@@]1(C)O)[C@@H]3O,Activity,PC-12 [1],4.57%
C[C@@H]1CC[C@@]2(O)[C@]13C[C@@]1(OC(=O)CCC(=O)c4ccccc4)OC(OC[C@@]2(C)[C@@]1(C)O)[C@@H]3O,Activity,PC-12 [1],5.69%
C[C@@H]1CC[C@@]2(O)[C@]13C[C@@]1(OC(=O)/C=C/c4ccccc4)OC(OC[C@@]2(C)[C@@]1(C)O)[C@@H]3O,Activity,PC-12 [1],5.03%
C[C@@H]1CC[C@@]2(O)[C@]13C[C@@]1(OC(=O)CCc4ccc(Cl)cc4)OC(OC[C@@]2(C)[C@@]1(C)O)[C@@H]3O,Activity,PC-12 [1],5.87%
C[C@@H]1CC=C2[C@]13C[C@@]1(O)OC(OC[C@@]2(C)[C@@]1(C)O)[C@@H]3O,Activity,PC-12 [1],5.31%
C[C@@H]1CC=C2[C@]13C[C@@]1(O)OC(OC[C@@]2(C)[C@@]1(C)O)[C@@H]3OC(=O)CCc1ccc(F)cc1,Activity,PC-12 [1],5.43%
C/C=C/C=C/C(=O)O[C@]12C[C@]34[C@H](C)CC[C@]3(O)[C@@](C)(COC(O1)[C@@H]4O)[C@@]2(C)O,Activity,PC-12 [1],11.74%
same,Activity,PC-12 [2],Active
same,fold change (FC),PC-12 [3],2
same,fold change (FC),PC-12 [4],2
C[C@@H]1CC[C@@]2(O)[C@]13C[C@@]1(OC(=O)CCc4ccc(F)cc4)OC(OC[C@@]2(C)[C@@]1(C)O)[C@@H]3O,Activity,PC-12 [1],10.41%
same,Activity,PC-12 [2],Active
same,fold change (FC),PC-12 [3],2
same,fold change (FC),PC-12 [4],2
C[C@@H]1CC[C@@]2(O)[C@]13C[C@@]1(OC(=O)Cc4ccc(F)cc4)OC(OC[C@@]2(C)[C@@]1(C)O)[C@@H]3O,Activity,PC-12 [1],5.74%
C[C@@H]1CC[C@@]2(O)[C@]13C[C@@]1(OC(=O)Cc4ccc(Br)cc4)OC(OC[C@@]2(C)[C@@]1(C)O)[C@@H]3O,Activity,PC-12 [1],6.12%
C[C@@H]1CC=C2[C@]13C[C@@]1(O)OC(OC[C@@]2(C)[C@@]1(C)O)[C@@H]3OC(=O)CCc1ccc(Br)cc1,Activity,PC-12 [1],6.03%
C[C@@H]1CC[C@@]2(O)[C@]13C[C@@]1(OC(=O)Cc4cccc(F)c4)OC(OC[C@@]2(C)[C@@]1(C)O)[C@@H]3O,Activity,PC-12 [1],6.52%
C[C@@H]1CC[C@@]2(O)[C@]13C[C@@]1(OC(=O)Cc4cccc(Cl)c4)OC(OC[C@@]2(C)[C@@]1(C)O)[C@@H]3O,Activity,PC-12 [1],7.13%
C[C@@H]1CC=C2[C@]13C[C@@]1(O)OC(OC[C@@]2(C)[C@@]1(C)O)[C@@H]3OC(=O)CCc1cccc(Br)c1,Activity,PC-12 [1],5.26%
C[C@@H]1CC=C2[C@]13C[C@@]1(O)OC(OC[C@@]2(C)[C@@]1(C)O)[C@@H]3OC(=O)CCC(=O)c1ccccc1,Activity,PC-12 [1],7.21%
C[C@@H]1CC[C@@]2(O)[C@]13C[C@@]1(OC(=O)CCc4cccc(F)c4)OC(OC[C@@]2(C)[C@@]1(C)O)[C@@H]3O,Activity,PC-12 [1],6.35%
C[C@@H]1CC=C2[C@]13C[C@@]1(O)OC(OC[C@@]2(C)[C@@]1(C)O)[C@@H]3OC(=O)CCc1ccc(Cl)cc1,Activity,PC-12 [1],6.05%
C[C@@H]1CC=C2[C@]13C[C@@]1(O)OC(OC[C@@]2(C)[C@@]1(C)O)[C@@H]3OC(=O)CCc1cccc(Cl)c1,Activity,PC-12 [1],5.6%
C[C@@H]1CC[C@@]2(O)[C@]13C[C@@]1(O)OC(OC[C@@]2(C)[C@@]1(C)O)[C@@H]3O,Activity,PC-12 [1],5.75%
C[C@@H]1CC[C@@]2(O)[C@]13C[C@@]1(OC(=O)Cc4ccc5ccccc5c4)OC(OC[C@@]2(C)[C@@]1(C)O)[C@@H]3O,Activity,PC-12 [1],4.76%
same,Retention_time,[5],15.77 min
same,Retention_time,[6],15.97 min
same,Retention_time,[7],16.154 min
C[C@@H]1CC[C@@]2(O)[C@]13C[C@@]1(OC(=O)Cc4cccc(Br)c4)OC(OC[C@@]2(C)[C@@]1(C)O)[C@@H]3O,Activity,PC-12 [1],7.35%
C[C@@H]1CC[C@@]2(O)[C@]13C[C@@]1(OC(=O)Cc4ccc(Cl)cc4)OC(OC[C@@]2(C)[C@@]1(C)O)[C@@H]3O,Activity,PC-12 [1],4.9%
C/C=C/C=C/C(=O)O[C@H]1C2OC[C@]3(C)C4=CC[C@@H](C)[C@@]41C[C@@](O)(O2)[C@]3(C)O,Activity,PC-12 [1],11.11%
same,Activity,PC-12 [2],Active
same,fold change (FC),PC-12 [3],2
same,fold change (FC),PC-12 [4],2
C[C@@H]1CC[C@@]2(O)[C@]13C[C@@]1(OC(=O)CCc4ccc(Br)cc4)OC(OC[C@@]2(C)[C@@]1(C)O)[C@@H]3O,Activity,PC-12 [1],6.15%
C[C@@H]1CC[C@@]2(O)[C@]13C[C@@]1(OC(=O)CCc4cccc(Br)c4)OC(OC[C@@]2(C)[C@@]1(C)O)[C@@H]3O,Activity,PC-12 [1],5.26%
C[C@@H]1CC=C2[C@]13C[C@@]1(O)OC(OC[C@@]2(C)[C@@]1(C)O)[C@@H]3OC(=O)CCc1ccccc1,Activity,PC-12 [1],5.81%

# Reference: ChEMBL document CHEMBL4732172, “Discovery, semisynthesis and neurite outgrowth-promoting activity of novel merrillianone/cycloparviforalone based esters as neurotrophic agents” (Bioorg Med Chem Lett, 2021)
